Earlier results on two compounds are cited in US8440723B2, “Metformin salts of salicylic acid and its congeners” (priority 2011, dated 2013).

Values after ≈ are worked out from the molar mass of the structure shown.

For data set [1] the following is noted: The Merck Index, Eleventh Edition.
In data set [2] the test system is patients with type 2 diabetes.

In the case of `O=C(O)c1ccccc1O` [salicylic acid], in data set [1] (1 g of substance), the “volume of water in which 1 g is soluble” value is 460 mL. Also, the water solubility in data set [1] is 2170 µg/mL (≈ 15.7 mM).

On to `O=C(Oc1ccccc1C(=O)O)c1ccccc1O` [salsalate, 2-(2-hydroxybenzoyl)oxybenzoic acid], for which, in data set [2], the “effect on blood glucose, HbA1c, triglycerides, free fatty acid and C-reactive protein” value was “lowers blood glucose, HbA1c levels, triglycerides, free fatty acid and C-reactive protein”. In data set [1], the “solubility in water (in words)” value was “practically insoluble in water”.
